Test results as given in the NIST ThermoML archive (doi:10.1021/acs.jced.5b00367).

Experiment: wn = mass fraction of the nth substance listed
Details: 101 kPa, Liquid, Alternating current cell with electrodes, w1 = 0.01

CCCCCCCCCCCCCCCC[N+](CC)(CC)CCCCCCCCCCCCCCCC.[Br-] [diethyldihexadecylammonium bromide] + O
Details | electrical conductivity [S/m]
279.15 K | 0.0018
279.25 K | 0.00186
279.45 K | 0.00186
279.55 K | 0.00187
279.65 K | 0.00187
279.85 K | 0.00188
280.15 K | 0.00189
280.35 K | 0.00189
280.55 K | 0.0019
280.65 K | 0.0019
281.05 K | 0.0019
281.15 K | 0.00191
281.55 K | 0.00191
281.85 K | 0.00192
282.05 K | 0.00192
282.25 K | 0.00193
282.75 K | 0.00194
283.05 K | 0.00195
283.15 K | 0.00195
283.45 K | 0.00195
283.65 K | 0.00195
283.85 K | 0.00195
283.95 K | 0.00195
284.15 K | 0.00195
284.55 K | 0.00197
284.75 K | 0.00197
285.25 K | 0.00197
285.45 K | 0.00198
285.55 K | 0.00198
285.75 K | 0.00198
285.85 K | 0.00198
286.15 K | 0.00198
286.25 K | 0.00198
286.55 K | 0.00198
286.65 K | 0.00198
289.15 K | 0.002
290.15 K | 0.00201
290.85 K | 0.00202
291.45 K | 0.00204
291.75 K | 0.00205
292.05 K | 0.00206
292.95 K | 0.00207
295.55 K | 0.00209
296.65 K | 0.0021
297.65 K | 0.00211
298.65 K | 0.00212
299.45 K | 0.00213
300.75 K | 0.00214
301.25 K | 0.00215
302.35 K | 0.00216
303.05 K | 0.00217
303.65 K | 0.00219
304.05 K | 0.0022
305.25 K | 0.00226
305.55 K | 0.00229
305.95 K | 0.00235
306.45 K | 0.00239
306.95 K | 0.00247
307.35 K | 0.00254
307.65 K | 0.00264
307.95 K | 0.0027
308.15 K | 0.00278
308.45 K | 0.00294
308.75 K | 0.00294
308.95 K | 0.00295
309.55 K | 0.00296
310.25 K | 0.00297
311.35 K | 0.00299
312.45 K | 0.00304
312.65 K | 0.00305
313.55 K | 0.00305
313.95 K | 0.00308
314.15 K | 0.00314
316.55 K | 0.00319
317.25 K | 0.00323
318.65 K | 0.00322
318.75 K | 0.00325
319.15 K | 0.00326
320.75 K | 0.00328
320.95 K | 0.00331
321.05 K | 0.00333
322.05 K | 0.0034
322.15 K | 0.0034
323.15 K | 0.00347
